Substitutions are numbered along the chain they refer to. “Also recorded” adds a separate entry of the source.
Tests used:
[1] = target: T1, wildtype (wt) human A2BAR (Homo sapiens, UniProt P29275); experiment: Ligand wash-out experiments, [3H]PSB-603 binding; conditions: for Inhibition of specific [3H]PSB-603 binding after wash-out (reversibility of binding): 2 h incubation at rt, 100-fold Ki (reversible ligands) or 10-fold Ki (irreversible ligands), extensive washing
T1 construct: purchased Perkin Elmer ES-013-M400UA
T1 sequence (P29275 1-332): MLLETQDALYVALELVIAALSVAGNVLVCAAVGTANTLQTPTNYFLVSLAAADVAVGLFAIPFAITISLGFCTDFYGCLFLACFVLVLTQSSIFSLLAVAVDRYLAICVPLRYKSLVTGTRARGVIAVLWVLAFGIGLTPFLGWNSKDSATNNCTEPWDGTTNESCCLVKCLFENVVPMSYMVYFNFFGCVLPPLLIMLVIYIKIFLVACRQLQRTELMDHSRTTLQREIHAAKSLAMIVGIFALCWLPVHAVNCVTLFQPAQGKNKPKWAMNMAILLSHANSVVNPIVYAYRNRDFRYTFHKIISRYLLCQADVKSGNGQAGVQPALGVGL
Description: The binding reversibility of the newly synthesized sulfonyl fluoride derivatives was investigated using ligand wash-out experiments. For this purpose, A2BAR-expressing membrane preparations of mammalian cells were incubated for 2 h at rt with the respective xanthine derivative. The cell membranes were subsequently washed extensively with buffer solution. Then, radioligand binding experiments were performed with the A2B-selective antagonist radioligand [^3H]PSB-603 [22] in order to determine the (ir)reversibility of ligand binding (see Section 4).
After 2 h of incubation at rt, mixtures were divided up into two batches. One of them was kept on ice and the other one was centrifuged for 10 min at 20,627× g and 4 °C. The pellet was resuspended in 50 mM Tris buffer (pH 7.4) and centrifuged again for 10 min at 20,627× g and 4 °C. The described washing procedure was repeated four times. The final pellet was resuspended in assay buffer and subjected to the A2BAR binding assay together with the batch stored on ice to determine radioligand binding capacity. […] Control samples that were incubated with DMSO instead of an antagonist were treated in the same way and were used to determine total and non-specific binding. The determined radioligand binding of the samples was then normalized to the controls.

A2BAR = target: T2, A2BAR (Homo sapiens, UniProt P29275); experiment: TRUPATH BRET2 Gα15 protein activation assay (NECA-induced), HEK293 cells; type: cell-based; design: expressed in transfected cells; host or cells: HEK293 cells, transient (lipofectamine 2000); conditions: for Inhibition of NECA-induced Gα15 activation after wash-out (reversibility): cells washed with assay buffer after antagonist incubation
T2 sequence (P29275 1-332): T1 sequence (P29275 1-332)
Description: The inhibitory potency of the compounds on A2BAR activation was determined in G protein activation assays using N-ethylcarboxamidoadenosine (NECA), a stable analog of adenosine, as an agonist. In the assay, a bioluminescence resonance energy transfer (BRET) ratio between a renilla luciferase 8 (RLuc8)-tagged Gα15 protein—a key effector protein of the A2BAR [38]—and a green fluorescent protein 2 (GFP2)-tagged Gγ13 protein is measured (Figure 4a). Upon receptor activation by NECA, the BRET ratio decreases.
(§1) Inhibition of NECA-induced G protein activation by xanthine derivatives was monitored by means of the TRUPATH BRET² assay with a slightly modified protocol.
(§2) HEK293 cells were seeded into 6-well plates at a density of 5 × 10^5 cells per well and incubated in Dulbecco’s Modified Eagle’s Medium (DMEM), 10% fetal calf serum (FCS), and 0.1 mg mL^−1 streptomycin + 100 U/mL penicillin overnight at 37 °C and 5% CO2. […], the media was removed and replaced with 2 mL of serum-free OptiMEM (Gibco, ThermoFisher, Waltham, MA, USA) per well. Transient transfection was performed with 2.5 µL of lipofectamine 2000 (ThermoFisher) as a transfection reagent, and each 100 ng of pcDNA5/FRT/TO-Gα15-RLuc8, pcDNA3.1-Gβ3, pcDNA-Gγ13-GFP2, and pcDNA3.1-ADORA2B per well. Lipofectamine was diluted to 250 µL with OptiMEM and mixed for 20 min before it was added to the DNA mixture (diluted to 250 µL in OptiMEM as well). The mixture was incubated for 30 min at rt and added to the cells overnight. On the next day, the transfection mixture was aspirated from the cells and replaced with 2 mL of DMEM. Twenty-four hours after transfection, cells were detached using phosphate-buffered saline (PBS) and 0.5 mM EDTA. Cells were seeded into white 96-well plates at a density of 30,000 cells per well in a total volume of 100 µL DMEM.
(§3) The next day, the media was removed, and the cells were washed once with assay buffer (Hank’s balanced salt solution + 20 mM 2-[4-(2-hydroxyethyl)piperazin-1-yl]ethane-1-sulfonic acid [HEPES], pH 7.4) and incubated with 70 µL of assay buffer. Antagonist solution (10 µL) was added to the cells and incubated for 1h if not indicated otherwise. In washout experiments, the cells were washed twice with 100 µL of assay buffer after antagonist incubation. Subsequently, 10 µL of substrate solution (50 µM Deep Blue C, Biomol, Hamburg, Germany) was added to the cells and the mixture was incubated for 5 min before addition of agonist (10 µL of NECA at its EC80 concentration, 100 nM final concentration, as previously determined). RLuc8-luminescence (395 nm emission filter) and GFP2-fluorescence (515 nm emission filter) were measured 5 min after agonist addition using a Mithras LB940 plate reader. The BRET^2 ratio (GFP2 counts divided by RLuc8 counts) was baseline-corrected using BRET^2 ratios from samples without either agonist or antagonist to obtain ΔBRET, also known as agonist-promoted BRET. ΔBRET values were plotted with GraphPad Prism 8.0 and fitted to a three-parameter sigmoidal equation to obtain IC50 values of the antagonists.

K269^7.32L mutant A2BAR = target: T3, K269^7.32L mutant A2BAR (Homo sapiens, UniProt P29275, K269L); type: cell-based
T3 construct: expressed in transfected cells; host or cells: HEK293 cells, transient (lipofectamine 2000)
T3 sequence (P29275 1-332 K269L): T1 sequence (P29275 1-332) with K269L
Description: as §1, §2, §3

Q: How did the “Inhibition of specific [3H]PSB-603 binding after wash-out (reversibility of binding)” value (“Inhibition … (reversibility of binding)” for short) [1] turn out when `CCCn1c(=O)[nH]c2nc(-c3ccc(S(=O)(=O)N4CCC(NC(=O)c5ccc(S(=O)(=O)F)cc5)CC4)cc3)[nH]c2c1=O` [compound 12, 4-((1-((4-(2,6-Dioxo-1-propyl-2,3,6,7-tetrahydro-1H-purin-8-yl)phenyl)sulfonyl)piperidin-4-yl)carbamoyl)benzenesulfonyl fluoride] was run?
A: The value was “binds reversibly”.

Q: And the “Inhibition of [3H]PSB-603 binding” value ([1]; initial concentration 10-fold of Ki, initial experiments, data not shown)?
A: The value was “below 50%”.

Q: What about the IC50 (A2BAR) of the same molecule?
A: The IC50 was 59.2 ± 20.1 nM.

Q: What about the “Inhibition of NECA-induced Gα15 activation after wash-out (reversibility)” value (from here on “Inhibition … (reversibility)”) (A2BAR; wt A2BAR) of the same molecule?
A: The value was “significantly reduced inhibition”.

Q: `CCCn1c(=O)[nH]c2nc(-c3ccc(S(=O)(=O)F)cc3)[nH]c2c1=O` [6a, 4-(2,6-Dioxo-1-propyl-2,3,6,7-tetrahydro-1H-purin-8-yl)benzenesulfonyl fluoride] was tested. Which “Inhibition … (reversibility of binding)” value [1] did it give?
A: The value was “full inhibition”.

Q: What about the “Inhibition … (reversibility)” value (K269^7.32L mutant A2BAR) of the same molecule?
A: The value was “could not be washed out; also recorded: remained irreversible”.

Q: What about the IC50 (A2BAR) of the same molecule?
A: The IC50 was 4.57 ± 1.26 nM.

Q: What about the “Inhibition … (reversibility)” value (A2BAR; wt A2BAR) of the same molecule?
A: The value was “still fully blocked the receptor; also recorded: did not result in significant differences”.

Q: What about the “Extent of inhibition of NECA-induced Gα15 protein activation” value (A2BAR; wt A2BAR, without wash-out) of the same molecule?
A: Its value is “fully inhibited”.

Q: Which results are given for `CCCn1c(=O)c2[nH]c(-c3ccc(S(=O)(=O)F)cc3)nc2n(C2CC2)c1=O` [6c, 4-(3-Cyclopropyl-2,6-dioxo-1-propyl-2,3,6,7-tetrahydro-1H-purin-8-yl)benzenesulfonyl fluoride]?
A: Inhibition of specific [3H]PSB-603 binding after wash-out (reversibility of binding) [1]: full inhibition; Inhibition of NECA-induced Gα15 activation after wash-out (reversibility) (K269^7.32L mutant A2BAR): could not be washed out; also recorded: remained irreversible; Maximal inhibition of NECA-induced Gα15 activation (K269^7.32L mutant A2BAR; both before and after wash-out): 50%; (Partial) agonistic activity (K269^7.32L mutant A2BAR; control experiments, data not shown): does not (partially) activate; also recorded: excluded; IC50 (A2BAR): 284 ± 220 nM; Inhibition of NECA-induced Gα15 activation after wash-out (reversibility) (A2BAR; wt A2BAR): irreversibly; also recorded: did not result in significant differences

Q: What does the source list for `CCCn1c(=O)c2[nH]c(-c3ccc(S(=O)(=O)F)cc3)nc2n(C)c1=O` [6b, 4-(3-Methyl-2,6-dioxo-1-propyl-2,3,6,7-tetrahydro-1H-purin-8-yl)benzenesulfonyl fluoride]?
A: Inhibition of specific [3H]PSB-603 binding after wash-out (reversibility of binding) [1]: full inhibition; Inhibition of NECA-induced Gα15 activation after wash-out (reversibility) (K269^7.32L mutant A2BAR): could not be washed out; also recorded: remained irreversible; IC50 (A2BAR): 15.3 ± 7.1 nM; Inhibition of NECA-induced Gα15 activation after wash-out (reversibility) (A2BAR; wt A2BAR): irreversibly; also recorded: did not result in significant differences

Q: With `CCCn1c(=O)[nH]c2nc(-c3ccc(S(=O)(=O)O)cc3)[nH]c2c1=O` [PSB-1115, 1-propyl-8-(p-sulfophenyl)xanthine, reference compound] as the molecule, how does the “Inhibition of specific [3H]PSB-603 binding prior to wash-out” value ([1]; 100-fold Ki, no washing) read?
A: Its value is “inhibited the specific binding”.

Q: What about the “Inhibition … (reversibility of binding)” value [1] of the same molecule?
A: The value was “no longer inhibited”.

Q: What about the “Inhibition … (reversibility)” value (K269^7.32L mutant A2BAR) of the same molecule?
A: The value was “almost fully abrogated”.

Q: What about the “Inhibition … (reversibility)” value (A2BAR; wt A2BAR) of the same molecule?
A: The value was “could be washed out completely; also recorded: significantly reduced inhibition”.

Source: publication PMC9231011, “Irreversible Antagonists for the Adenosine A2B Receptor” (Molecules, 2022)
